Source: patent US8507547B2, “Anti-fatigue agents and oral compositions containing andrographolide as active ingredient” (Suntory Holdings Limited, priority 2007, dated 2013)

System: Sprague Dawley rats
Assay: Measurement of fatigue substance in blood (creatine kinase activity in blood plasma after forced exercise)
Format: in vivo
Conditions: 2 mg per kilogram of body weight orally twice daily, five times in total, before forced exercise stress; FIG. 4
Source text: The fourth test is measurement of an amount of fatigue substance. This is described in detail below in Example 4. The test is to determine the effect of administration of the test substance on the amount of fatigue substance at the time when physical or mental stress is applied. Since the fatigue substances change according to the type, intensity, duration, or the like of fatigue that is applied, they are not clearly defined as an indicator, but creatine kinase in blood can be named as one of the candidate substances. Creatine kinase is an enzyme that catalyzes high-energy phosphoryl group transfer from creatine phosphate to ADP, and is considered to serve physiological functions of consuming creatine phosphate to supply ATP at the time of massive energy consumption, such as twitching of skeletal muscles upon instantaneous short-term exercise, in an in vivo energy system. […] It is therefore said that the level of damage on the muscle can be determined by measuring the creatine kinase activity in blood. […]
Muscle fatigue in a living body was determined using creatine kinase levels in blood as a reference index. […] Blood was taken out from a tale vein immediately after the exercise stress, and creatine kinase activity in blood plasma was measured with a biochemistry automatic analyzer (Model 7070, Hitachi High-Technologies Corporation) using an enzyme method. […]

With `C=C1CC[C@@H]2[C@](C)(CO)[C@H](O)CC[C@@]2(C)[C@@H]1C/C=C1/C(=O)OC[C@H]1O` [andrographolide] the “creatine kinase activity in blood plasma” value was “decrease in creatine kinase activity was observed”.
